Measured values reported in BigSolDB 2.1.

Nc1nc(Cl)c2[nH]cnc2n1
Details	solubility (mole fraction)
in 1,4-dioxane, 288.15 K	7.48e-05
in 1,4-dioxane, 293.15 K	9.16e-05
in 1,4-dioxane, 298.15 K	0.000112
in 1,4-dioxane, 303.15 K	0.000135
in 1,4-dioxane, 308.15 K	0.000162
in 1,4-dioxane, 313.15 K	0.000195
in 1,4-dioxane, 318.15 K	0.000236
in 1,4-dioxane, 323.15 K	0.000277
in 1,4-dioxane, 328.15 K	0.000325
in 1,4-dioxane, 333.15 K	0.000396
in 2-butanone, 278.15 K	0.000178
in 2-butanone, 283.15 K	0.000214
in 2-butanone, 288.15 K	0.000256
in 2-butanone, 293.15 K	0.000303
in 2-butanone, 298.15 K	0.000352
in 2-butanone, 303.15 K	0.000408
in 2-butanone, 308.15 K	0.000476
in 2-butanone, 313.15 K	0.000547
in 2-butanone, 318.15 K	0.000626
in 2-butanone, 323.15 K	0.000723
in 2-butanone, 328.15 K	0.00084
in 2-butanone, 333.15 K	0.001
in DMF, 278.15 K	0.00226
in DMF, 283.15 K	0.00266
in DMF, 288.15 K	0.00313
in DMF, 293.15 K	0.00366
in DMF, 298.15 K	0.00427
in DMF, 303.15 K	0.00497
in DMF, 308.15 K	0.00577
in DMF, 313.15 K	0.00668
in DMF, 318.15 K	0.00771
in DMF, 323.15 K	0.00888
in DMF, 328.15 K	0.01
in DMF, 333.15 K	0.0121
in DMSO, 298.15 K	0.0108
in DMSO, 303.15 K	0.0127
in DMSO, 308.15 K	0.015
in DMSO, 313.15 K	0.0172
in DMSO, 318.15 K	0.0204
in DMSO, 323.15 K	0.024
in DMSO, 328.15 K	0.0284
in DMSO, 333.15 K	0.0331
in ethanol, 278.15 K	4.39e-05
in ethanol, 283.15 K	5.42e-05
in ethanol, 288.15 K	6.87e-05
in ethanol, 293.15 K	8.56e-05
in ethanol, 298.15 K	0.000105
in ethanol, 303.15 K	0.000125
in ethanol, 308.15 K	0.000153
in ethanol, 313.15 K	0.000184
in ethanol, 318.15 K	0.000218
in ethanol, 323.15 K	0.000258
in ethanol, 328.15 K	0.000303
in ethanol, 333.15 K	0.000357
in ethylene glycol, 278.15 K	0.000549
in ethylene glycol, 283.15 K	0.000634
in ethylene glycol, 288.15 K	0.000719
in ethylene glycol, 293.15 K	0.000823
in ethylene glycol, 298.15 K	0.000923
in ethylene glycol, 303.15 K	0.00104
in ethylene glycol, 308.15 K	0.00117
in ethylene glycol, 313.15 K	0.0013
in ethylene glycol, 318.15 K	0.00145
in ethylene glycol, 323.15 K	0.0016
in ethylene glycol, 328.15 K	0.00177
in ethylene glycol, 333.15 K	0.00198
in isobutanol, 278.15 K	8.8e-05
in isobutanol, 283.15 K	0.000106
in isobutanol, 288.15 K	0.000131
in isobutanol, 293.15 K	0.000155
in isobutanol, 298.15 K	0.00018
in isobutanol, 303.15 K	0.000211
in isobutanol, 308.15 K	0.000244
in isobutanol, 313.15 K	0.00028
in isobutanol, 318.15 K	0.000325
in isobutanol, 323.15 K	0.000373
in isobutanol, 328.15 K	0.000433
in isobutanol, 333.15 K	0.000499
in isopropanol, 278.15 K	5.99e-05
in isopropanol, 283.15 K	7.43e-05
in isopropanol, 288.15 K	9.38e-05
in isopropanol, 293.15 K	0.000114
in isopropanol, 298.15 K	0.000137
in isopropanol, 303.15 K	0.000165
in isopropanol, 308.15 K	0.000195
in isopropanol, 313.15 K	0.00023
in isopropanol, 318.15 K	0.000266
in isopropanol, 323.15 K	0.000314
in isopropanol, 328.15 K	0.000363
in isopropanol, 333.15 K	0.000431
in methanol, 278.15 K	3.09e-05
in methanol, 283.15 K	3.96e-05
in methanol, 288.15 K	4.94e-05
in methanol, 293.15 K	6.14e-05
in methanol, 298.15 K	7.53e-05
in methanol, 303.15 K	9.43e-05
in methanol, 308.15 K	0.000112
in methanol, 313.15 K	0.000137
in methanol, 318.15 K	0.000168
in methanol, 323.15 K	0.000198
in methanol, 328.15 K	0.000233
in methanol, 333.15 K	0.000279
in n-butanol, 278.15 K	0.000135
in n-butanol, 283.15 K	0.000159
in n-butanol, 288.15 K	0.000185
in n-butanol, 293.15 K	0.00021
in n-butanol, 298.15 K	0.000242
in n-butanol, 303.15 K	0.000276
in n-butanol, 308.15 K	0.000316
in n-butanol, 313.15 K	0.000358
in n-butanol, 318.15 K	0.000409
in n-butanol, 323.15 K	0.000461
in n-butanol, 328.15 K	0.000515
in n-butanol, 333.15 K	0.000586
in n-propanol, 278.15 K	0.000103
in n-propanol, 283.15 K	0.000122
in n-propanol, 288.15 K	0.000149
in n-propanol, 293.15 K	0.000174
in n-propanol, 298.15 K	0.000202
in n-propanol, 303.15 K	0.000234
in n-propanol, 308.15 K	0.000274
in n-propanol, 313.15 K	0.000314
in n-propanol, 318.15 K	0.000362
in n-propanol, 323.15 K	0.00042
in n-propanol, 328.15 K	0.000472
in n-propanol, 333.15 K	0.000539
in water, 278.15 K	3.28e-06
in water, 283.15 K	4.66e-06
in water, 288.15 K	6.53e-06
in water, 293.15 K	9.04e-06
in water, 298.15 K	1.24e-05
in water, 303.15 K	1.68e-05
in water, 308.15 K	2.26e-05
in water, 313.15 K	3e-05
in water, 318.15 K	3.96e-05
in water, 323.15 K	5.17e-05
in water, 328.15 K	6.7e-05
in water, 333.15 K	8.62e-05
